The record followed here is ChEMBL document CHEMBL1201862, “PubChem BioAssay data set” (2004).

Some test systems named below: SW-620; HCT-15; UACC-62; SF-295; SNB-19; 786-0; SNB-75; NCI-H226; OVCAR-8; Malme-3M; MDA-N; MDA-MB-231; NCI-H460; SR; UO-31; OVCAR-5; HOP-62; A549.
Holding throughout (experiment): growth of human tumour cells (NCI), 48 h

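Dose response: 5 concentrations. Exposure: 48 h. Format: 96-well plates. Endpoint: linear interpolation; highest concentration if not reached. Here, GI50 denotes the concentration required for 50% inhibition of growth.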 The source made the active and inactive calls. Cut-off read from the data, not from the text of the source: active = GI50 up to about 1.1 µM and inactive = higher.

`CC(C)C1=C(Cc2ccccc2)C(=O)O/C1=C\c1cc(Cl)c(O)c(Cl)c1`: the GI50 in the assay with SW-620 is 23.1 µM (inactive); in the assay on HCT-15, 18.2 µM; in the assay on UACC-62, 16.9 µM (inactive); in the assay on SF-295, 16 µM (inactive); in the assay on SNB-19, 17.1 µM (inactive); in the assay on 786-0, 17.1 µM (inactive). Also, the GI50 was 20.1 µM (inactive) in the assay on SNB-75; 20.3 µM (inactive) in the assay with NCI-H226; 20.5 µM (inactive) in the assay on OVCAR-8; 16.7 µM (inactive) in the assay with Malme-3M; 18.3 µM (inactive) in the assay with MDA-N; 16.9 µM (inactive) in the assay with MDA-MB-231. The GI50 is 18.2 µM (inactive) in the assay on NCI-H460; 21.8 µM (inactive) with SR; 14.1 µM (inactive) with UO-31; 21.7 µM (inactive) with OVCAR-5; 20.2 µM (inactive) in the assay with HOP-62; 21.6 µM (inactive) with A549.

In the case of `CC(=O)OC12c3ccccc3C(c3ccccc31)C1C(=O)N(Nc3ccccc3)C(=O)C12` (configuration not stated), the GI50 in the assay with SW-620 was > 100 µM (inactive); in the assay with HCT-15, more than 100 µM; with UACC-62, > 10 µM (inactive); in the assay with SF-295 it was > 100 µM (inactive); in the assay with SNB-19, > 100 µM (inactive); in the assay with 786-0, > 100 µM (inactive). Also, the GI50 in the assay with SNB-75 is 92.7 µM (inactive); in the assay with NCI-H226, > 100 µM (inactive); with OVCAR-8 it was > 100 µM (inactive); with Malme-3M, > 100 µM (inactive); with MDA-N, > 100 µM (inactive); in the assay with MDA-MB-231, > 100 µM (inactive). Further, the GI50 in the assay with NCI-H460, with SR, in the assay with UO-31, in the assay on OVCAR-5, in the assay on HOP-62 and in the assay on A549 was > 100 µM (inactive) each time.

Regarding `COc1ccccc1C[C@@H]1OC2(C=CC(=O)CC2SC(=O)c2ccccc2)O[C@H]1Cc1ccccc1OC` (some centres not stated), the GI50 in the assay with SW-620 is 0.324 µM (active); with HCT-15, 1.05 µM; with UACC-62, 2.71 µM (inactive); in the assay on SF-295, 1.63 µM (inactive); in the assay with SNB-19, 1.91 µM (inactive); in the assay with 786-0 it was 0.275 µM (active). Moreover, the GI50 with SNB-75 was 1.78 µM (inactive); in the assay with NCI-H226 it was 2.08 µM (inactive); in the assay with OVCAR-8 it was 0.216 µM (active); in the assay with Malme-3M it was 1.77 µM (inactive); with MDA-N it was 1.51 µM (inactive); in the assay on MDA-MB-231 it was 2.64 µM (inactive). Also, the GI50 was 2.44 µM (inactive) in the assay on NCI-H460; 0.308 µM (active) in the assay on SR; 1.28 µM (inactive) in the assay on UO-31; 1.19 µM (inactive) in the assay on OVCAR-5; 1.35 µM (inactive) in the assay on HOP-62; 2.9 µM (inactive) in the assay on A549.

As for `CC(C)(C)NC1=NC(C(F)(F)F)(C(F)(F)F)NC(=O)N1`, the GI50 is > 100 µM (inactive) with SW-620; 57 µM with HCT-15; 54.6 µM (inactive) in the assay with UACC-62; 39.7 µM (inactive) in the assay on SF-295; 67.3 µM (inactive) with SNB-19; 52.4 µM (inactive) in the assay on 786-0. Besides, the GI50 with SNB-75 was 75.2 µM (inactive); in the assay on NCI-H226 it was > 100 µM (inactive); in the assay on OVCAR-8, 80.4 µM (inactive); with Malme-3M, 34.4 µM (inactive); with MDA-N, 49.2 µM (inactive); in the assay with MDA-MB-231, 77.1 µM (inactive). The GI50 in the assay on NCI-H460 is 47.4 µM (inactive); in the assay with SR it was 37 µM (inactive); in the assay on UO-31, 53.6 µM (inactive); in the assay on OVCAR-5 it was > 100 µM (inactive); in the assay on HOP-62 it was > 100 µM (inactive); in the assay with A549 it was 35.1 µM (inactive).
